Each structure is given as a SMILES string. Marks after values point to notes of the source that are not given here.

Data set [1] has as its system NOD/Itj mice. Kind of data set: Salivary flow rate of NOD/Itj mice (animal model of SS). To be noted: for effect on salivary flow rate of NOD/Itj mice (in words): gastric gavage; for Salivary flow rate (mean value ± SD): NOD/Itj mice, gastric gavage from 8th week, microcapsules 0.4 mmol/kg NO3−, NaNO3 0.4 mmol/kg, Vc 2 mmol/kg. The data set is classed as in vivo. How it is done: Therefore, the NOD/Itj mouse can be used as an animal model of SS. Subsequently, the microcapsules of the present invention were administered by gastric gavage, the saliva flow rate was monitored, and the experimental samples were collected at the 12th week to observe the prophylactic and therapeutic effects of the microcapsules of the present invention on SS.
After proper anaesthesia, the mice were injected I.P. with pilocarpine nitrate in aseptic normal saline at a concentration of 0.4 mg/ml and a dosage of 0.5 mg/100 g b.w. After the injection, the mice were laid on a 20° inclined mouse board on prone position, with the head slightly inclined downward, so that the head was in a slightly lower position. About 5 minutes after the injection, after the first drop of saliva from the mouth of the mouse, after 5 minutes, the time was recorded and the saliva was collected, and the amount of saliva was collected for 20 minutes (the amount of saliva is detected by inserting a small sterile cotton ball with known weight under the tongue of mouse, and weighing cotton ball 20 minutes later).
(§1) Saliva flow rate was measured […].

For data set [2] the following is noted: after oral administration; cited from earlier work.
For data set [3], the system named is NOD/Itj mice. The experiment in a line: Lymphocyte infiltration in submandibular gland of NOD/Itj mice (HE staining, Image J). The data set is classed as in vivo. To be noted: 14th week, gastric gavage from 8th week, microcapsules 0.4 mmol/kg NO3−, NaNO3 0.4 mmol/kg, Vc 2 mmol/kg. How it is done: The salivary flow rate was measured every two weeks from the 8th week after birth, and the saliva was collected. At the same time, the submandibular gland samples were collected and stained with HE for histological observation, and the degree of lymphocyte infiltration was analyzed by Image J.
After the experimental animals were sacrificed, they were placed on supine position, disinfected, and the neck was incised to dissect the submandibular gland completely. The tissues were washed with PBS, cut into 0.2 cmx 0.2 cm, and fixed in 4% paraformaldehyde (pH 7.2) at 4° C. for 24-48 h. After dehydration, wax impregnation and embedding, the tissues were sectioned at a thickness of 4 μm and baked, followed by hematoxylin and eosin (HE) staining. The remaining fresh samples were placed in a refrigerator at −80° C.
as §1

Data set [4] can be described thus: In vivo test: nitrate content in the blood of mice after single gastric gavage. To be noted: 2 mmol/kg sodium nitrate, once. How it is done:
Blood was collected from vena caudalis at 0 h, and 2, 4, 6, 12, and 24 h after gastric gavage, respectively.

As for `O=C1O[C@H]([C@@H](O)CO)C(O)=C1O` [Vc, vitamin C], the “effect on salivary flow rate of NOD/Itj mice (in words)” value in data set [1] is on record as “no obvious influence”. The “Salivary flow rate (mean value ± SD)” value in data set [1] (week 8) is 0.077 ± 0.012 g/10 min; in data set [1] (week 9), 0.063 ± 0.008 g/10 min; in data set [1] (week 10), 0.049 ± 0.007 g/10 min; in data set [1] (week 11), 0.041 ± 0.008 g/10 min; in data set [1] (week 12) it was 0.038 ± 0.006 g/10 min; in data set [1] (week 13) it was 0.035 ± 0.008 g/10 min. In addition, the “Salivary flow rate (mean value ± SD)” value in data set [1] (week 14) came out at 0.034 ± 0.007 g/10 min. The half-life in vivo in data set [2] was 2 h. Also, in data set [3], the “Infiltration area of the submandibular gland” value is recorded as 5.16 ± 0.58%.
Regarding `O=[N+]([O-])[O-].[Na+]` [NaNO3, sodium nitrate], the “effect on salivary flow rate of NOD/Itj mice (in words)” value in data set [1] was “no obvious influence”. The “Salivary flow rate (mean value ± SD)” value in data set [1] (week 8) amounted to 0.078 ± 0.011 g/10 min; in data set [1] (week 9) it was 0.068 ± 0.006 g/10 min; in data set [1] (week 10) it was 0.060 ± 0.004 g/10 min; in data set [1] (week 11) it was 0.057 ± 0.004 g/10 min; in data set [1] (week 12) it was 0.061 ± 0.009 g/10 min; in data set [1] (week 13) it was 0.062 ± 0.007 g/10 min. Besides, the “Salivary flow rate (mean value ± SD)” value in data set [1] (week 14) stood at 0.059 ± 0.009 g/10 min. Besides, the “Nitrate content in the blood of the mice after single administration” value in data set [4] (0 h) was found to be 41.8 µmol/L; in data set [4] (2 h), 1052.8 µmol/L; in data set [4] (4 h), 572.4 µmol/L; in data set [4] (6 h) it was 297.4 µmol/L; in data set [4] (12 h) it was 45.3 µmol/L; in data set [4] (24 h), 32.7 µmol/L. In data set [3], the “Infiltration area of the submandibular gland” value was 4.42 ± 0.54^b %.

(Values after patent US20240342135A1, “USE OF NITRATE AND VITAMIN C MICROCAPSULE FOR TREATING SICCA SYNDROME” (CAPITAL MEDICAL UNIVERSITY, priority 2021, published 2024).)
